Measurements as given in BindingDB's records for doi:10.7270/Q2TX3CTT (Broad Institute, 2010).
Where a name gives a salt, the structure may show the parent alone.

Biological target: Glycogen synthase kinase-3 beta (Homo sapiens, UniProt P49841)
Test: concentration-response blocking of human GSK3B – biochemical, luminescence, cell-free homogeneous, retest, dose response (AID 434954)

Chain of Glycogen synthase kinase-3 beta (P49841 whole entry): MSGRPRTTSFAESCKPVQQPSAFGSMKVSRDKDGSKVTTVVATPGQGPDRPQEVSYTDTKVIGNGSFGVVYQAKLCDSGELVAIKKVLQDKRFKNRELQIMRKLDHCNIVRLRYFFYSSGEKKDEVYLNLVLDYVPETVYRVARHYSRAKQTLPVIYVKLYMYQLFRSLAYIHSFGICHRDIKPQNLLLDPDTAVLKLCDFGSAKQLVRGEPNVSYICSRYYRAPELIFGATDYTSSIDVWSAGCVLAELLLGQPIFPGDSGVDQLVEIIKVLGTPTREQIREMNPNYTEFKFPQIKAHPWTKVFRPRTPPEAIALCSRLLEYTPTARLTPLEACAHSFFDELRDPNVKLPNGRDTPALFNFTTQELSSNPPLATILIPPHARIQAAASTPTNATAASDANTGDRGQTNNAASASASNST

Compound	EC50
COc1ccc(-c2nn(CCC(=O)O)cc2/C=C/C(=O)O)cc1[N+](=O)[O-] [3-[4-[(E)-2-carboxyethenyl]-3-(4-methoxy-3-nitrophenyl)pyrazol-1-yl]propanoic acid]	> 300 µM
Fc1ccccc1CNc1nc(-c2cccnc2)nc2ccccc12 [N-[(2-fluorophenyl)methyl]-2-pyridin-3-ylquinazolin-4-amine]	> 300 µM
CC(O)c1cccc(NC2=CC(=O)CC(C)(C)C2)c1 (stereo not given)	> 300 µM
CN(C)Cc1c(O)ccc2c1O/C(=C\C=C\c1ccccc1)C2=O [7-Dimethylaminomethyl-6-hydroxy-2-[(E)-3-phenyl-prop-2-en-(Z)-ylidene]-benzofuran-3-one]	31.4 µM
Nc1nc(NCC2CCCO2)nc(Nc2ccc(Cl)cc2)c1[N+](=O)[O-] (stereo not given) [N'-(4-Chloro-phenyl)-5-nitro-N-(tetrahydro-furan-2-ylmethyl)-pyrimidine-2,4,6-triamine]	2.29 µM
Clc1ccccc1CSc1nnc(-c2ccncc2)o1 [2-{[(2-chlorophenyl)methyl]sulfanyl}-5-(pyridin-4-yl)-1,3,4-oxadiazole]	4.85 µM
N#Cc1c(N)nc2c(c1-c1ccc(F)cc1)CCC2	> 300 µM
CCN(CC)CCNC(=O)C(=O)Nc1ccc2c(c1)N(S(=O)(=O)c1cccs1)CCC2 [N-[2-(diethylamino)ethyl]-N'-(1-thiophen-2-ylsulfonyl-3,4-dihydro-2H-quinolin-7-yl)oxamide]	> 300 µM
O=C(CN(Cc1ccc(F)cc1)C(=O)CCC(=O)Nc1ccccn1)NCc1ccc(F)cc1 [N-(4-Fluoro-benzyl)-N-[(4-fluoro-benzylcarbamoyl)-methyl]-N'-pyridin-2-yl-succinamide]	37.7 µM
CC1(C)CC(=O)C=C(Nc2ccccn2)C1	> 300 µM
CN(C)CCc1cc2c(c3c1ccc1ccccc13)OCO2 [N,N-dimethyl-2-(5-naphtho[2,1-g][1,3]benzodioxolyl)ethanamine;hydrochloride]	25.9 µM
CCN1CCc2c(sc(NC(=O)Cc3ccccc3)c2C(N)=O)C1 [6-ethyl-2-[(1-oxo-2-phenylethyl)amino]-5,7-dihydro-4H-thieno[2,3-c]pyridine-3-carboxamide;hydrochloride]	> 300 µM
O=C(Cc1ccc(Cl)cc1)Nc1ncc([N+](=O)[O-])s1 [2-(4-chlorophenyl)-N-(5-nitro-1,3-thiazol-2-yl)ethanamide]	30.4 µM
Cc1ccc(C(OCCN(C)C)c2cccc(C(F)(F)F)c2)cc1 (stereo not given) [(Z)-but-2-enedioic acid;N,N-dimethyl-2-[(4-methylphenyl)-[3-(trifluoromethyl)phenyl]methoxy]ethanamine]	> 300 µM
CCCn1nc(NC(=O)c2cccs2)c2cc3ccc(C)cc3nc21 [N-(7-methyl-1-propylpyrazolo[3,4-b]quinolin-3-yl)thiophene-2-carboxamide]	> 300 µM
CCn1c(SCC(=O)Nc2ccc(C(C)=O)cc2)nnc1C1CC1 [N-(4-acetylphenyl)-2-[(5-cyclopropyl-4-ethyl-1,2,4-triazol-3-yl)sulfanyl]acetamide]	> 300 µM
CCN(CC)S(=O)(=O)c1cccc(NC(=O)COc2ccc(Cl)cc2Br)c1 [2-(2-bromanyl-4-chloranyl-phenoxy)-N-[3-(diethylsulfamoyl)phenyl]ethanamide]	> 300 µM

Second part, the compound after the results:

EC50	Compound
221 µM	Cn1c(SCc2nnc(-c3ccc(F)cc3)o2)nnc1C1COc2ccccc2O1 (stereo not given) [MLS000098636]
30.2 µM	O=C(Nc1nccs1)C1CCCN1S(=O)(=O)c1cccc2cccnc12 (stereo not given) [SMR000096012]
> 300 µM	CC(=NNC(=O)c1nnn(-c2nonc2N)c1CN1CCc2ccccc21)c1ccccc1O [MLS001076839]
13.6 µM	Nc1nc(NCc2ccc(Cl)cc2)nc(NCCO)c1[N+](=O)[O-] [SMR000436738]
> 300 µM	Cc1nnc(SCC(=O)Nc2nccs2)n(N)c1=O [SMR000323668]
> 300 µM	FC(F)(F)COc1ccc(-n2ccnc2)nn1 [SMR000307161]
> 300 µM	COc1ccc(OC)c(Nc2nc(N(C)c3ccccc3)nc(N)c2[N+](=O)[O-])c1 [MLS001215240]
> 300 µM	Cc1ccc(S(=O)(=O)N2CN(Cc3ccco3)c3nc4ccccc4nc32)cc1 [SMR000145587]
